Measurements: patent US20150284375A1 (AJINOMOTO CO., INC., priority 2012, published 2015)

Biological target: T1, human TRPA1 (Homo sapiens, UniProt O75762)
T1 construct: expressed in transfected cells; host or cells: Human embryonic kidney-derived 293T cells, transiently transfected with the pcDNA3.1/zeo(+) human TRPA1 plasmid
Test: Measurement of TRPA1 antagonist activity (intracellular calcium increase, FLIPR, allylisothiocyanate stimulation)
Assay type: cell-based
Conditions: 293T cells transfected with human TRPA1; allylisothiocyanate 20 μM; concentration for 50% inhibitory rate; read-out: antagonism hTRPA1
Excerpt: Measurement of TRPA1 Antagonist Activity
Human TRPA1 Expression Plasmid
As cDNA encoding human TRPA1 (GenBank accession No. […]), a commercially available product was purchased (manufactured by Kazusa DNA Research Institute, clone No.: pFN21AB7348, item No.: FHC07217). Using this as a template, full-length human TRPA1 gene was amplified using the primer sequences shown below, by reaction using DNA polymerase (manufactured by Stratagene, trade name: PfuUltra High-Fidelity DNA Polymerase).
A recognition site (underlined) of restriction enzyme HindIII was added to the 5′ side, and XbaI site (underlined) was added to the 3′ side, and GTT of the template sequence was changed to termination codon TAG (bold). The obtained double stranded DNA was enzyme-digested with HindIII and XbaI, and introduced into a multicloning site of expression plasmid pcDNA3.1/zeo(+) (manufactured by Invitrogen) to give a human TRPA1 expression plasmid.
Human embryonic kidney-derived 293T cells were cultured in Dulbecco's Modified Eagle Medium containing 10% fetal bovine serum, 10 unit penicillin, and 10 μg streptomycin, plated on a petri dish having a diameter of 10 cm at 3×10^6 cells, and cultured for 24 hr. A medium containing a reduced amount of serum (manufactured by Invitrogen, trade name: OPTI-MEM, 600 μL), a gene insertion reagent (manufactured by Mirus Bio, trade name: Mirus TransIT-293, 18 μL), and human TRPA1 expression plasmid (6 μg) were mixed, the total amount of the mixture was added to the cells on the petri dish to allow for gene transfer. The cells were recovered about 8 hr later, plated on a poly-D-lysine coated 384 well black/clear bottom plate at 7,500-12,000 cells/well, and cultured overnight.
Measurement of Intracellular Calcium Increase
The 384 well plate was recovered, and the medium was removed. A calcium-bonded fluorescent indicator (manufactured by Molecular Device, trade name: Calcium4 Assay Kit, 40 μL) dissolved in assay buffer (1×HBSS, 20 mM HEPES, pH 7.2) was added, and the cells were stained in a 37° C. incubator for 1 hr. The cells were taken out at room temperature and left standing for 15 min or more. A test substance (10 μL) was added by a 384 well type dispenser, and the mixture was incubated at room temperature for 10 min. Then, allylisothiocyanate (12.5 μL) at a final concentration of 20 μM was added by a fluorescence imaging plate reader (manufactured by Molecular Device, FLIPR), and changes in the relative fluorescence intensity were measured for 5 min.
Test Substance Preparation
The test substance was dissolved in dimethyl sulfoxide and serially diluted with an assay buffer containing 0.1% bovine serum albumin (1×HBSS, 20 mM HEPES, pH 7.2) to a 5-fold concentration of the evaluation concentration. Allylisothiocyanate, which is a known TRPA1 activator, was dissolved in dimethyl sulfoxide to 100 mM, and further diluted 5-fold (100 μM) of the final concentration, like the test substance.
Calculation of Antagonist Activity
Under the test substance-free conditions, the maximum variation range of the fluorescence intensity before and after allylisothiocyanate stimulation was defined to be 100% activity rate, and the variation range before and after buffer stimulation was defined as 0% activity rate. The activity rate on addition of the test substance was determined, and the numerical value obtained by subtracting the activity rate from 100 was defined to be an inhibitory rate. 1050, which is the concentration of the test substance necessary for reaching the 50% inhibitory rate, was calculated from the sigmoid approximate curve by a spreadsheet software Excel-Fit.

T1 sequence (O75762 whole entry): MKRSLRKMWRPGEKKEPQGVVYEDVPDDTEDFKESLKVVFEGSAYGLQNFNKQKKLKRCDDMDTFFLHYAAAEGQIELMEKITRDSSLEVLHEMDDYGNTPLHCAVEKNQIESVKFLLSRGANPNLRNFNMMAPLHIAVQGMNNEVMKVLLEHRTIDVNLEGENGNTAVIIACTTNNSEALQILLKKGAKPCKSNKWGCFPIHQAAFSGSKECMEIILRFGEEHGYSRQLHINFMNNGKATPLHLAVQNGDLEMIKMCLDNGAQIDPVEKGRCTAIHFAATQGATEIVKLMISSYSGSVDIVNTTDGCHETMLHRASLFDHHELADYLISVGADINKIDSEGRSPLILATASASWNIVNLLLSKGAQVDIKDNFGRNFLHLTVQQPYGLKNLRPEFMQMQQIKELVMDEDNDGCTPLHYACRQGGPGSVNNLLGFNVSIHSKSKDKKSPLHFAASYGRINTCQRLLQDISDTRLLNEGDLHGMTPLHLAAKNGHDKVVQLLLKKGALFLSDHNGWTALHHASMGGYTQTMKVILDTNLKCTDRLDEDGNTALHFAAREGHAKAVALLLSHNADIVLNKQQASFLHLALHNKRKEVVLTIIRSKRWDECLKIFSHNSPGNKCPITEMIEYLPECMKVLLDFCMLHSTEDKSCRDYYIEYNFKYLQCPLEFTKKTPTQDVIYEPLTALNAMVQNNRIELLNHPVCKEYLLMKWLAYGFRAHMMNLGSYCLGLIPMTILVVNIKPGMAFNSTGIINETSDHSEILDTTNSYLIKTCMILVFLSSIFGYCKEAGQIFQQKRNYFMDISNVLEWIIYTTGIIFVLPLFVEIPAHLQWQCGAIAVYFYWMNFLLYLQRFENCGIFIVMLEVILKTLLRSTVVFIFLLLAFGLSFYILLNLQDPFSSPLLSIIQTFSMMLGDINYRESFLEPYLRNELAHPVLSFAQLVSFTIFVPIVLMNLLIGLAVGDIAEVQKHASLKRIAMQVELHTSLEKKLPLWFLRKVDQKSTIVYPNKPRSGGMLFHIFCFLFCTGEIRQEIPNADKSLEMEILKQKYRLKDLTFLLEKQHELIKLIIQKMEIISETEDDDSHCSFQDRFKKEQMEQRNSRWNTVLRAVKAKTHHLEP

IC50 | Structure (SMILES)
630 nM | COC(=O)c1ccc(OCc2ccc(CNC(=O)[C@@H]3CCCN3S(=O)(=O)c3ccc(Cl)s3)cc2)cc1 [Example 48, methyl 4-((4-({[(2S)-1-(5-chlorothiophene-2-sulfonyl)pyrrolidine-2-carbonyl]amino}methyl)phenyl)methoxy)benzoate]
2100 nM | N#Cc1ccc(OCc2ccc(CNC(=O)[C@@H]3CCCN3S(=O)(=O)c3ccc(Cl)s3)cc2)cc1 [Example 49, (2S)-1-(5-chlorothiophene-2-sulfonyl)-N-({4-[(4-cyano-phenoxy)methyl]phenyl}methyl)pyrrolidine-2-carboxamide]
242 nM | O=C(NCc1ccc(COc2cccc(C(F)(F)F)c2)cc1)[C@@H]1CCCN1S(=O)(=O)c1ccc(Cl)s1 [Example 50]
210 nM | O=C(NCc1ccc(COc2cccc(OC(F)(F)F)c2)cc1)[C@@H]1CCCN1S(=O)(=O)c1ccc(Cl)s1 [Example 52, (2S)-1-(5-chlorothiophene-2-sulfonyl)-N-((4-{[3-(trifluoro-methoxy)phenoxy]methyl}phenyl)methyl)pyrrolidine-2-carboxamide]
500 nM | Cc1cccc(OCc2ccc(CNC(=O)[C@@H]3CCCN3S(=O)(=O)c3ccc(Cl)s3)cc2)c1 [Example 53, (2S)-1-(5-chlorothiophene-2-sulfonyl)-N-({4-[(3-methyl-phenoxy)methyl]phenyl}methyl)pyrrolidine-2-carboxamide]
550 nM | COc1cccc(OCc2ccc(CNC(=O)[C@@H]3CCCN3S(=O)(=O)c3ccc(Cl)s3)cc2)c1 [Example 54, (2S)-1-(5-chlorothiophene-2-sulfonyl)-N-({4-[(3-methoxy-phenoxy)methyl]phenyl}methyl)pyrrolidine-2-carboxamide]
230 nM | O=C(NCc1ccc(COc2cccc(F)c2)cc1)[C@@H]1CCCN1S(=O)(=O)c1ccc(Cl)s1 [Example 55, (2S)-1-(5-chlorothiophene-2-sulfonyl)-N-({4-[(3-fluoro-phenoxy)methyl]phenyl}methyl)pyrrolidine-2-carboxamide]
250 nM | O=C(NCc1ccc(COc2cccc(Cl)c2)cc1)[C@@H]1CCCN1S(=O)(=O)c1ccc(Cl)s1 [Example 56, (2S)-N-({4-[(3-chlorophenoxy)methyl]phenyl}methyl)-1-(5-chlorothiophene-2-sulfonyl)pyrrolidine-2-carboxamide]
310 nM | O=C(NCc1ccc(COc2cc(F)cc(F)c2)cc1)[C@@H]1CCCN1S(=O)(=O)c1ccc(Cl)s1 [Example 57, (2S)-1-(5-chlorothiophene-2-sulfonyl)-N-({4-[(3,5-difluoro-phenoxy)methyl]phenyl}methyl)pyrrolidine-2-carboxamide]
310 nM | COC(=O)c1cccc(OCc2ccc(CNC(=O)[C@@H]3CCCN3S(=O)(=O)c3ccc(Cl)s3)cc2)c1 [Example 58, methyl 3-((4-({[(2S)-1-(5-chlorothiophene-2-sulfonyl)pyrrolidine-2-carbonyl]amino}methyl)phenyl)methoxy)benzoate]
838 nM | CN(C)c1cccc(OCc2ccc(CNC(=O)[C@@H]3CCCN3S(=O)(=O)c3ccc(Cl)s3)cc2)c1 [Example 59, (2S)-1-(5-chlorothiophene-2-sulfonyl)-N-((4-{[3-(dimethyl-amino)phenoxy]methyl}phenyl)methyl)pyrrolidine-2-carboxamide]
420 nM | O=C(NCc1ccc(COc2ccccc2C(F)(F)F)cc1)[C@@H]1CCCN1S(=O)(=O)c1ccc(Cl)s1 [Example 60, (2S)-1-(5-chlorothiophene-2-sulfonyl)-N-((4-{[2-(trifluoro-methyl)phenoxy]methyl}phenyl)methyl)pyrrolidine-2-carboxamide]
190 nM | Cc1ccccc1OCc1ccc(CNC(=O)[C@@H]2CCCN2S(=O)(=O)c2ccc(Cl)s2)cc1 [Example 61, (2S)-1-(5-chlorothiophene-2-sulfonyl)-N-({4-[(2-methyl-phenoxy)methyl]phenyl}methyl)pyrrolidine-2-carboxamide]
1100 nM | COc1ccccc1OCc1ccc(CNC(=O)[C@@H]2CCCN2S(=O)(=O)c2ccc(Cl)s2)cc1 [Example 62, (2S)-1-(5-chlorothiophene-2-sulfonyl)-N-({4-[(2-methoxy-phenoxy)methyl]phenyl}methyl)pyrrolidine-2-carboxamide]
440 nM | O=C(NCc1ccc(COc2ccccc2F)cc1)[C@@H]1CCCN1S(=O)(=O)c1ccc(Cl)s1 [Example 63, (2S)-1-(5-chlorothiophene-2-sulfonyl)-N-({4-[(2-fluoro-phenoxy)methyl]phenyl}methyl)pyrrolidine-2-carboxamide]
480 nM | O=C(NCc1ccc(COc2ccccc2Cl)cc1)[C@@H]1CCCN1S(=O)(=O)c1ccc(Cl)s1 [Example 64, (2S)-N-({4-[(2-chlorophenoxy)methyl]phenyl}methyl)-1-(5-chlorothiophene-2-sulfonyl)pyrrolidine-2-carboxamide]
130 nM | O=C(NCc1ccc(COc2c(F)cccc2F)cc1)[C@@H]1CCCN1S(=O)(=O)c1ccc(Cl)s1 [Example 65, (2S)-1-(5-chlorothiophene-2-sulfonyl)-N-({4-[(2,6-difluoro-phenoxy)methyl]phenyl}methyl)pyrrolidine-2-carboxamide]
780 nM | COC(=O)c1ccccc1OCc1ccc(CNC(=O)[C@@H]2CCCN2S(=O)(=O)c2ccc(Cl)s2)cc1 [Example 66, methyl 2-((4-({[(2S)-1-(5-chlorothiophene-2-sulfonyl)pyrrolidine-2-carbonyl]amino}methyl)phenyl)methoxy)benzoate]
730 nM | O=C(NCc1ccc(COc2cncc(Cl)c2)cc1)[C@@H]1CCCN1S(=O)(=O)c1ccc(Cl)s1 [Example 67, (2S)-N-({4-[(5-chloro-3-pyridyl)oxymethyl]phenyl}methyl)-1-(5-chlorothiophene-2-sulfonyl)pyrrolidine-2-carboxamide]
4400 nM | O=C(NCc1ccc(COc2ccc3ncccc3c2)cc1)[C@@H]1CCCN1S(=O)(=O)c1ccc(Cl)s1 [Example 68, (2S)-1-(5-chlorothiophene-2-sulfonyl)-N-{[4-(6-quinolyloxy-methyl)phenyl]methyl}pyrrolidine-2-carboxamide]
1800 nM | O=C(NCc1ccc(COc2cc3ccccc3cn2)cc1)[C@@H]1CCCN1S(=O)(=O)c1ccc(Cl)s1 [Example 69]
340 nM | O=C(NCc1cccc(COc2ccccc2)c1)[C@@H]1CCCN1S(=O)(=O)c1ccc(Cl)s1 [Example 70]
270 nM | O=C(NCc1cccc(COc2ccc(C(F)(F)F)cc2)c1)[C@@H]1CCCN1S(=O)(=O)c1ccc(Cl)s1 [Example 71]
3800 nM | CC(NC(=O)[C@@H]1CCCN1S(=O)(=O)c1ccc(Cl)s1)c1ccc(COc2ccccc2)cc1 (stereo partly drawn) [Example 72]
150 nM | O=C(NCc1ccc(COc2ccccc2)cc1Cl)[C@@H]1CCCN1S(=O)(=O)c1ccc(Cl)s1 [Example 73]
180 nM | O=C(NCc1ccc(COc2ccc(C(F)(F)F)cc2)cc1Cl)[C@@H]1CCCN1S(=O)(=O)c1ccc(Cl)s1 [Example 74]
140 nM | O=C(NCc1ccc(COc2cccc(C(F)(F)F)c2)cc1Cl)[C@@H]1CCCN1S(=O)(=O)c1ccc(Cl)s1 [Example 75]
160 nM | O=C(NCc1ccc(COc2ccccc2)cc1C(F)(F)F)[C@@H]1CCCN1S(=O)(=O)c1ccc(Cl)s1 [Example 76]
100 nM | O=C(NCc1ccc(COc2ccc(C(F)(F)F)cc2)cc1C(F)(F)F)[C@@H]1CCCN1S(=O)(=O)c1ccc(Cl)s1 [Example 77]

Structure (SMILES) | IC50
CC(C)(C)Oc1ccc(OCc2ccc(CNC(=O)[C@@H]3CCCN3S(=O)(=O)c3ccc(Cl)s3)cc2)cc1 [Example 51, (2S)-N-({4-[(4-tert-butoxyphenoxy)methyl]phenyl}methyl)-1-(5-chlorothiophene-2-sulfonyl)pyrrolidine-2-carboxamide] | 630 nM
